Like-named read-outs stand apart in the source and are kept apart here.
Assays:
[1] = test system: Cyprid larvae from Balanus improvisus
Description: Cyprid larvae from Balanus improvisus were transferred to Petri dishes containing seawater from the Swedish west coast and medetomidine in various concentrations (0.1 nM, 1 nM, 10 nM, 100 nM and 1 μM). In addition, for control purposes, cyprid larvae were transferred to a Petri dish containing seawater only. After 11 days the cyprids were counted and classified as either 1) settled (established) on the surface of the Petri dish, 2) swimming, i.e. living, not established, or 3) dead. The results in the table are expressed in percentage of the total number of organisms in each group (=n).
This example corresponds to Example 1 with the exception that medetomidine was replaced by clonidine in the concentrations defined in Table 2 below.

cyprid larvae [2] = details: for Dead / Settled / Swimming: cleaned, reading after 7 days
Description: Petri dishes of hydrophilic polystyrene were filled with a solution of medetomidine in varying concentrations (0 ng/ml 10 ng/ml, 1 μg/ml and 10 μg/ml). […] After a 24 hour incubation period in room temperature the dishes were cleaned thoroughly with seawater. The dishes were then incubated with cyprid larvae in amounts of approximately 20 larvae/dish. Readings were taken under microscope after 7 days, and the larvae were classified as either settled, free-swimming or dead.

cyprid larvae [3] = details: cleaned, as Example 3
Description: Petri dishes of hydrophilic polystyrene were filled with a solution of medetomidine in varying concentrations (0 ng/ml 10 ng/ml, 1 μg/ml and 10 μg/ml). Like in Example 1, one Petri dish with no medetomidine was used as control. After a 24 hour incubation period in room temperature the dishes were cleaned thoroughly with seawater. The dishes were then incubated with cyprid larvae in amounts of approximately 20 larvae/dish. Readings were taken under microscope after 7 days, and the larvae were classified as either settled, free-swimming or dead.
Example 3 was repeated, with the difference that Petri dishes of hydrophobic polystyrene were used instead of hydrophilic dishes.

[4] = test system: acorn barnacles (Balanus improvisus); details: for Number of Balanus improvisus/10 cm^2: acrylate-based paint with 0.02% by weight medetomidine
Description: Medetomidine was added to an acrylate-based paint formula to a concentration of 0.02% by weight (or 170 μg/ml). The paint was then applied on 10 test surfaces dimensioned 10×10 cm^2. The surfaces were allowed to dry at room temperature and were then mounted on racks, which were placed at a depth of about one meter in a bay in the sea offshore from Strömstad, Sweden, and were allowed to remain there during August and September of 1999. After 2, 4 and 8 weeks, respectively, the test surfaces were removed from the sea and the number of acorn barnacles (Balanus improvisus) were counted.

[5] = test system: tube building polychaetes (Hydroides elegans); details: for Dead / Settled / Swimming: incubated two days
Description: The polychaete larvae were incubated for two days in Petri dishes containing sea water and were then classified as either settled, free swimming or dead, like in Example 1. The water originated from the coast outside Sydney, Australia, and the experiment was carried out in May 1999.

[6] = medetomidine 0.1 nM, after 11 days, % of total organisms
[7] = medetomidine 1 nM, after 11 days, % of total organisms
[8] = medetomidine 10 nM, after 11 days, % of total organisms
[9] = medetomidine 100 nM, after 11 days, % of total organisms
[10] = medetomidine 1000 nM, after 11 days, % of total organisms
[11] = hydrophilic polystyrene dish pre-incubated 24 h with medetomidine 1 ng/ml
[12] = hydrophilic polystyrene dish pre-incubated 24 h with medetomidine 10 ng/ml
[13] = hydrophilic polystyrene dish pre-incubated 24 h with medetomidine 1000 ng/ml
[14] = hydrophilic polystyrene dish pre-incubated 24 h with medetomidine 10000 ng/ml
[15] = hydrophobic polystyrene dish pre-incubated with medetomidine 1 ng/ml
[16] = hydrophobic polystyrene dish pre-incubated with medetomidine 10 ng/ml
[17] = hydrophobic polystyrene dish pre-incubated with medetomidine 1000 ng/ml
[18] = hydrophobic polystyrene dish pre-incubated with medetomidine 10000 ng/ml
[19] = clonidine 0.027 ng/ml, as Example 1
[20] = clonidine 0.27 ng/ml, as Example 1
[21] = clonidine 2.7 ng/ml, as Example 1
[22] = clonidine 27 ng/ml, as Example 1
[23] = clonidine 270 ng/ml, as Example 1

`Cc1cccc(C(C)c2cnc[nH]2)c1C` (racemic) [medetomidine, (±)-4-[1-(2,3-dimethylphenyl)-ethyl]-1H-imidazole-mono-hydrogen chloride] showed a Dead [1, 6] of 0%, a Settled [1, 6] of 52% and a Swimming [1, 6] of 48%. The Dead [1, 7] was 0%, the Settled [1, 7] was 1.5% and the Swimming [1, 7] was 98%. For the same compound, the Dead [1, 8] was 0%, the Settled [1, 8] was 0% and the Swimming [1, 8] was 100%. The Dead [1, 9] was 0%, the Settled [1, 9] was 0% and the Swimming [1, 9] was 100%. The Dead [1, 10] was 0%, the Settled [1, 10] was 0% and the Swimming [1, 10] was 100%. The “number of established larvae” value ([1]; upon increased concentration of medetomidine (0.1 nM to 1 μM)) was “decreased upon increased concentration”, the “number of dead cyprids” value ([1]; upon increased contents of medetomidine (0.1 nM to 1 μM)) was “did not increase” and the “number of settled acorn barnacles” value (cyprid larvae [2]; also at very low medetomidine incubation concentrations) was “significant reduction”. For the same compound, the Dead (cyprid larvae [2]; [11]) was 0%, the Settled (cyprid larvae [2]; [11]) was 6.2% and the Swimming (cyprid larvae [2]; [11]) was 93.8%. It also gave a Dead (cyprid larvae [2]; [12]) of 0%, a Settled (cyprid larvae [2]; [12]) of 0% and a Swimming (cyprid larvae [2]; [12]) of 100%. It also gave a Dead (cyprid larvae [2]; [13]) of 0%, a Settled (cyprid larvae [2]; [13]) of 0% and a Swimming (cyprid larvae [2]; [13]) of 100%. The Dead (cyprid larvae [2]; [14]) was 0%, the Settled (cyprid larvae [2]; [14]) was 0% and the Swimming (cyprid larvae [2]; [14]) was 100%. The Dead (cyprid larvae [3]; [15]) was 0%, the Settled (cyprid larvae [3]; [15]) was 63.1% and the Swimming (cyprid larvae [3]; [15]) was 36.9%. For the same compound, the Dead (cyprid larvae [3]; [16]) was 2.1%, the Settled (cyprid larvae [3]; [16]) was 33.3% and the Swimming (cyprid larvae [3]; [16]) was 65%. The Dead (cyprid larvae [3]; [17]) was 0%, the Settled (cyprid larvae [3]; [17]) was 0% and the Swimming (cyprid larvae [3]; [17]) was 100%. The Dead (cyprid larvae [3]; [18]) was 2.1%, the Settled (cyprid larvae [3]; [18]) was 0% and the Swimming (cyprid larvae [3]; [18]) was 97.9%. For the same compound, the “Number of Balanus improvisus/10 cm^2” value ([4]; 2 weeks in the sea) was 4.63 ± 1.04 /10 cm^2, the “Number of Balanus improvisus/10 cm^2” value ([4]; 4 weeks in the sea) was 5.6 ± 1.4 /10 cm^2 and the “Number of Balanus improvisus/10 cm^2” value ([4]; 8 weeks in the sea) was 148.1 ± 16.24 /10 cm^2. The “number of acorn barnacles on the test surfaces compared with the control surfaces” value ([4]; paint with 0.02% by weight medetomidine, 2, 4 and 8 weeks) was “significant reduction”, the “effect on settling of polychaete larvae” value ([5]; concentration span of from 0.1 nM to 100 μM) was “significant inhibiting effect” and the Dead ([5]; medetomidine 0.1 nM) was 2.3%. For the same compound, the Settled ([5]; medetomidine 0.1 nM) was 9.3%, the Swimming ([5]; medetomidine 0.1 nM) was 88.4% and the Dead ([5]; medetomidine 1 nM) was 5.4%. For the same compound, the Settled ([5]; medetomidine 1 nM) was 5.4%, the Swimming ([5]; medetomidine 1 nM) was 89.2% and the Dead ([5]; medetomidine 10 nM) was 4.4%. The Settled ([5]; medetomidine 10 nM) was 0%, the Swimming ([5]; medetomidine 10 nM) was 95.6% and the Dead ([5]; medetomidine 100 nM) was 20%. The Settled ([5]; medetomidine 100 nM) was 0%, the Swimming ([5]; medetomidine 100 nM) was 80% and the Dead ([5]; medetomidine 1000 nM) was 45.7%. The Settled ([5]; medetomidine 1000 nM) was 0%, the Swimming ([5]; medetomidine 1000 nM) was 54.3% and the Dead ([5]; medetomidine 100 000 nM) was 100%. For the same compound, the Settled ([5]; medetomidine 100 000 nM) was 0%, the Swimming ([5]; medetomidine 100 000 nM) was 0% and the “toxic effects on polychaete larvae” value ([5]; span from 100 nM to 100 μM) was “toxic effects appear”.

With `Clc1cccc(Cl)c1NC1=NCCN1` [clonidine, 2-(2,6-di-chloro-anilino)-2-imidazoline] the Dead ([1]; Balanus improvisus, in vivo, 11 days, 0.027 ng/ml) was 0%, the Dead ([1]; Balanus improvisus, in vivo, 11 days, 0.27 ng/ml) was 0% and the Dead ([1]; Balanus improvisus, in vivo, 11 days, 2.7 ng/ml) was 1.7%. For the same compound, the Dead ([1]; Balanus improvisus, in vivo, 11 days, 27 ng/ml) was 1.5%, the Dead ([1]; Balanus improvisus, in vivo, 11 days, 270 ng/ml) was 8.3% and the Settled [1, 19] was 36.7%. It also gave a Swimming [1, 19] of 65.7%, a Settled [1, 20] of 22.3% and a Swimming [1, 20] of 77.7%. It also gave a Settled [1, 21] of 1.8%, a Swimming [1, 21] of 96.5% and a Settled [1, 22] of 0%. For the same compound, the Swimming [1, 22] was 98.5%, the Settled [1, 23] was 0% and the Swimming [1, 23] was 91.7%.
